Where no end group is shown, it is not given here.
Experiments:
[1] = tested on: NIH Swiss mice fed a high-fat diet for 150 days; experiment: Acute and delayed i.p. glucose tolerance test, blood glucose and plasma insulin; format: in vivo
Method: Plasma glucose and plasma insulin concentrations were measured prior to and after i.p. administration of glucose alone (18 mmol/kg body weight), or in combination with apelin analogues (25 nmol/kg body weight) in 18 h fasted mice fed a high-fat diet for 150 days. Values represent mean±SEM for eight mice (n=8). *P<0.05, **P<0.01 and ***P<0.001 compared to glucose alone. FIG. 6 illustrates effect of i.p. administration of glucose alone (18 mmol/kg body weight), ([…])apelin-13 and ([…])apelin-13 alone or in combination (each 25 nmol/kg body weight) on (A) blood glucose and (B) plasma insulin in 18 h fasted mice fed a high-fat diet for 150 days. Values represent mean±SEM for eight mice (n=8). *p<0.05 and **p<0.01 compared to glucose alone, ^+P<0.05 compared to ([…])apelin-13, ^∇P<0.05 and ^∇∇P<0.01 compared to ([…])apelin-13. FIG. 10 illustrates tests conducted 2 h after administration of apelin related analogues (25 nmol/kg body wt) in 18 h fasted mice fed a high-fat diet for 150 days. (A) Blood glucose and (B) plasma insulin was measured before and after i.p. administration of glucose (18 mmol/kg body wt) alone or in combination with apelin analogues. Values represent mean±SEM for eight mice (n=8). *P<0.05 and **P<0.01 compared to glucose alone. FIG. 11 illustrates tests conducted 8 h after administration of apelin related analogues (25 nmol/kg body wt) in 18 h fasted mice fed a high-fat diet for 150 days. (A) Blood glucose and (B) plasma insulin was measured before and after i.p. administration of glucose (18 mmol/kg body wt) alone or in combination with apelin analogues. Values represent mean±SEM for eight mice (n=8). *P<0.05 and **P<0.01 compared to glucose alone. FIG. 12 illustrates acute effects of fatty acid modified apelin analogues on glucose-lowering and insulin release in high fat fed Swiss NIH mice with dietary-induced diabetes. (A) Blood glucose and (B) plasma insulin concentrations were measured prior to and after i.p. administration of glucose alone (18 mmol/kg body weight), or in combination with apelin analogues (25 nmol/kg body weight) in 18 h fasted mice fed a high-fat diet for 150 days. Values represent mean±SEM for eight mice (n=8). *P<0.05, compared to glucose alone. FIG. 13 illustrates tests conducted 16 h after administration of fatty acid apelin analogues (25 nmol/kg body wt) in mice fed a high-fat diet for 150 days. (A) Blood glucose and (B) plasma insulin was measured before and after i.p. administration of glucose (18 mmol/kg body wt) alone or in combination with apelin analogues. Values represent mean±SEM for eight mice (n=8). *P<0.05, **P<0.01 and ***P<0.001 compared to glucose alone. NIH Swiss mice (Harlan UK Ltd., Blackthorne, UK) were derived from a nucleus colony obtained from the National Institute of Health, Bethesda, Md., USA. One group of mice were maintained on a standard rodent diet (10% fat, 30% protein, 60% carbohydrate; percent of total energy 12.99 kJ/g, Trouw Nutrition, Cheshire, UK) and used as a model of normal glycaemia. Other NIH Swiss mice were maintained on a high fat diet (45% fat, 20% protein, 35% carbohydrate; percent of total energy 26.15 […], UK) from 8 weeks of age for 150 days to produce a model of diet induced obesity-diabetes. […] All mice were housed in an air-conditioned room maintained at 22±2° C. with a 12 h light: 12 h dark cycle (08:00-20:00 h), were singly caged, and selected for experimental groups according to body weight and non-fasted blood glucose. Drinking water and diet were freely available. All animal studies were performed in accordance with the UK Animals (Scientific Procedures) Act 1986. For acute in vivo studies, blood samples were collected from the cut tip of the tail vain of fasted, conscious mice into fluoride/heparin coated glucose microcentrifuge tubes (Sarstedt, Germany) immediately prior to (t=0) and at 15, 30, 60 and 105 min following i.p. injection of glucose ([…]).

[2] = Degradation of apelin peptides by plasma from fasted normal NIH Swiss mice (rp-HPLC, MALDI-TOF MS); format: in vitro ADME
Method: Degradation of Apelin Peptides by Plasma from Fasted Normal NIH Swiss Mice […] The enzymatic reaction was stopped by adding 50 μl of 10% TFA (0.1% v/v; Sigma-Aldrich Ltd, (Poole, Dorset, UK) and frozen at -20° C. until separation. The terminated reaction products were then applied to an analytical Vydac C-8 column (4.6×150 mm; Phenomenex, Macclesfield, Cheshire, UK) for rp-HPLC analysis. The absorbance was monitored at 214 nm using a […] UV 2000 detector (Thermoquest Limited, Manchester, UK) and the traces were recorded by Thermo Electron ChromQuest data collection software (version 4). HPLC peak fractions were collected manually and subjected to MALDI-TOF mass spectrometry for peptide identification. Degradation profile of various apelin-13 related analogues: plasma incubations (4 h) were separated on a Vydac C-8 analytical HPLC column and all peaks were collected prior to analysis by MALDI-TOF mass spectrometry. Degradation fragments, actual molecular weights (Mr) and retention times (RT) are shown. Theoretical molecular weights of each fragment are shown in brackets. […] Degradation fragments, theoretical molecular weights (Mr) and retention times (RT) are shown. Theoretical molecular weights of each fragment are shown in brackets.

[3] = acute, alone and in combination, each 25 nmol/kg i.p. with glucose, Table 5
[4] = acute, peptide 25 nmol/kg i.p. with glucose 18 mmol/kg, Table 4
[5] = NIH Swiss, mouse, plasma, pH 7.4
[6] = following a 2 h delay, 25 nmol/kg
[7] = following a 8 h delay, 25 nmol/kg
[8] = fatty acid derived agonists, 16 h delayed i.p. glucose tolerance test, 25 nmol/kg
[9] = fatty acid derived agonists, acute i.p. glucose tolerance test, 25 nmol/kg

Row | Degradation fragment, Peak 1 [2] | Degradation fragment, Peak 2 [2] | Rank order of stability [2] | half-life at 263 µg/mL [2, 5] | remaining at 4 h, 263 µg/mL [2, 5] | Molecule | Rank order on basis of anti-hyperglycaemic efficacy ([1]; acute, Table 4) | Blood glucose as percent of glucose-alone control (lower = stronger glucose lowering) [1, 4] | Insulin secretion, where glucose alone = 100% [1, 4] | also measured
1 | (Ala^13)apelin-13 (1-8) | (Ala^13)apelin-13 (1-11) | 8 | 10.3 h | 70.5 ± 2.2% | CSCC[C@H](NC(=O)[C@@H]1CCCN1C(=O)CNC(=O)[C@H](CCCCN)NC(=O)[C@H](Cc1c[nH]cn1)NC(=O)[C@H](CO)NC(=O)[C@H](CC(C)C)NC(=O)[C@H](CCCNC(=N)N)NC(=O)[C@@H]1CCCN1C(=O)[C@H](CCCNC(=N)N)NC(=O)[C@@H](N)CCC(N)=O)C(=O)N1CCC[C@H]1C(=O)N[C@@H](C)C(=O)O [(Ala^13)apelin-13, reference compound] | 9 | 118% (*) | 74% (**) | Glucose lowering, where glucose alone = 100% [1, 3]: 118% (*); Insulin secretion, where glucose alone = 100% [1, 3]: 74% (*); Effect on the glucose lowering properties of (Tyr^13)apelin-13 and apelin-13-amide ([1]; administered in combination, each 25 nmol/kg): blocked the glucose lowering properties
2 | (1-7) | – | 6 | 11.1 h | 74.4 ± 5.2% | CSCC[C@H](NC(=O)[C@@H]1CCCN1C(=O)CNC(=O)[C@H](CCCCN)NC(=O)[C@H](Cc1cnc[nH]1)NC(=O)[C@H](CO)NC(=O)[C@H](CC(C)C)NC(=O)[C@H](CCCNC(=N)N)NC(=O)[C@@H]1CCCN1C(=O)[C@H](CCCNC(=N)N)NC(=O)[C@@H]1CCC(=O)N1)C(=O)N1CCC[C@H]1C(=O)N[C@@H](C)C(=O)O [pGlu(Ala^13)apelin-13, pGlu (Ala^13)apelin-13] | 7 | 110% ^ | 86% (*) | –
3 | – | – | 13 | – | 39.5 ± 1.9% | CSCC[C@H](NC(=O)[C@@H]1CCCN1C(=O)CNC(=O)[C@H](CCCCN)NC(=O)[C@H](Cc1c[nH]cn1)NC(=O)[C@H](CO)NC(=O)[C@H](CC(C)C)NC(=O)[C@H](CCCNC(=N)N)NC(=O)[C@@H]1CCCN1C(=O)[C@@H](N)CCCNC(=N)N)C(=O)N1CCC[C@H]1C(=O)N[C@@H](Cc1ccccc1)C(=O)O [Apelin-12, reference compound] | – | – | – | half-life ([2]; mouse, plasma): 3.4 h
4 | – | – | 15 | 1.3 h | 5.5 ± 0.6% | LVQPRGSRNGPGPWQGGRRKFRRQRPRLSHKGPMPF [Apelin-36, reference compound] | – | – | – | –
5 | (Tyr^13)apelin-13 (1-7) | (Tyr^13)apelin-13 (1-12) | 10 | 8.5 h | 76.7 ± 1.3% | CSCC[C@H](NC(=O)[C@@H]1CCCN1C(=O)CNC(=O)[C@H](CCCCN)NC(=O)[C@H](Cc1c[nH]cn1)NC(=O)[C@H](CO)NC(=O)[C@H](CC(C)C)NC(=O)[C@H](CCCNC(=N)N)NC(=O)[C@@H]1CCCN1C(=O)[C@H](CCCNC(=N)N)NC(=O)[C@@H](N)CCC(N)=O)C(=O)N1CCC[C@H]1C(=O)N[C@@H](Cc1ccc(O)cc1)C(=O)O [(Tyr^13)apelin-13] | 4 | 77% (*) | 131% (*) | Glucose lowering, where glucose alone = 100% [1, 3]: 77% (*); Insulin secretion, where glucose alone = 100% [1, 3]: 131% (*); Rank order on basis of anti-hyperglycaemic efficacy ([1]; following a 2 h delay): 4; Blood glucose as percent of glucose-alone control (lower = stronger glucose lowering) [1, 6]: 85% ^; Insulin secretion, where glucose alone = 100% [1, 6]: 116% ^; Rank order on basis of anti-hyperglycaemic efficacy ([1]; following a 8 h delay): 4; Blood glucose as percent of glucose-alone control (lower = stronger glucose lowering) [1, 7]: 91% ^; Insulin secretion, where glucose alone = 100% [1, 7]: 104%
6 | (1-5) | (1-6) | 4 | 12.2 h | 79 ± 0.6% | CSCC[C@H](NC(=O)[C@@H]1CCCN1C(=O)CNC(=O)[C@H](CCCCN)NC(=O)[C@H](Cc1c[nH]cn1)NC(=O)[C@H](CO)NC(=O)[C@H](CC(C)C)NC(=O)[C@H](CCCNC(=N)N)NC(=O)[C@@H]1CCCN1C(=O)[C@H](CCCNC(=N)N)NC(=O)[C@@H]1CCC(=O)N1)C(=O)N1CCC[C@H]1C(=O)N[C@@H](Cc1ccc(O)cc1)C(=O)O [pGlu(Tyr^13)apelin-13, pGlu (Tyr^13)apelin-13] | 3 | 71% (*) | 138% (**) | Rank order on basis of anti-hyperglycaemic efficacy ([1]; following a 2 h delay): 3; Blood glucose as percent of glucose-alone control (lower = stronger glucose lowering) [1, 6]: 78% (**); Insulin secretion, where glucose alone = 100% [1, 6]: 142% (**); Rank order on basis of anti-hyperglycaemic efficacy ([1]; following a 8 h delay): 2; Blood glucose as percent of glucose-alone control (lower = stronger glucose lowering) [1, 7]: 86% (*); Insulin secretion, where glucose alone = 100% [1, 7]: 112%; Degradation fragment, Peak 3 [2]: (1-12)
7 | (1-6) | (1-12) | 9 | 9.8 h | 76.2 ± 1.9% | CSCC[C@H](NC(=O)[C@@H]1CCCN1C(=O)CNC(=O)[C@H](CCCCN)NC(=O)[C@H](Cc1c[nH]cn1)NC(=O)[C@H](CO)NC(=O)[C@H](CC(C)C)NC(=O)[C@H](CCCNC(=N)N)NC(=O)[C@@H]1CCCN1C(=O)[C@H](CCCNC(=N)N)NC(=O)[C@@H]1CCC(=O)N1)C(=O)N1CCC[C@H]1C(=O)N[C@H](C(=O)O)C(C)C [pGlu(Val^13)apelin-13, pGlu (Val^13)apelin-13] | 8 | 116% (*) | 75% (**) | –
8 | – | – | =1 | > 24 h | 100% | CCCCCCCCCCCCCCCC(=O)N[C@@H](CCC(=O)NCCCC[C@H](NC(=O)[C@H](Cc1c[nH]cn1)NC(=O)[C@H](CO)NC(=O)[C@H](CC(C)C)NC(=O)[C@H](CCCNC(=N)N)NC(=O)[C@@H]1CCCN1C(=O)[C@H](CCCNC(=N)N)NC(=O)[C@@H](N)CCC(N)=O)C(=O)NCC(=O)N1CCC[C@H]1C(=O)N[C@@H](CCSC)C(=O)N1CCC[C@H]1C(=O)N[C@@H](Cc1ccc(O)cc1)C(=O)O)C(=O)O [Lys^8GluPAL(Tyr^13)apelin-13] | – | – | – | Rank order on basis of anti-hyperglycaemic efficacy ([1]; fatty acid derived agonists, 16 h delay): 3; Blood glucose as percent of glucose-alone control (lower = stronger glucose lowering) [1, 8]: 91% ^; Insulin secretion, where glucose alone = 100% [1, 8]: 126% (*); Rank order on basis of anti-hyperglycaemic efficacy ([1]; fatty acid derived agonists, acute): 3; Glucose lowering, where glucose alone = 100% [1, 9]: 93%; Insulin secretion, where glucose alone = 100% [1, 9]: 104%; Half-life (t1/2) ([2]; NIH Swiss, mouse, plasma, 263 µg/mL, pH 7.4): >24 h
